Paper PMC3408453, “A Foldamer-Dendrimer Conjugate Neutralizes Synaptotoxic β-Amyloid Oligomers” (PLoS ONE, 2012)
Several values for one entry are separate records, joined by “and”; a condition that tells them apart may be missing. Equal values may be shown once.

Assays:
[1] = molecular target: T1, Aβ oligomers (Homo sapiens, UniProt P05067); assay: Ligand-induced precipitation during ITC titration, followed by DLS; conditions: 72 μM Aβ oligomer
T1 construct: a depsipeptide derivative of Aβ(1–42) was utilized; made in house; host or cells: chemical peptide synthesis (no expression host)
T1 sequence (P05067 672-713 limits assumed): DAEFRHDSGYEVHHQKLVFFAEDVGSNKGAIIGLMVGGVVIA
Protocol: (§1) Binding of 7 to the Aβ oligomers was monitored by means of isothermal titration calorimetry (ITC). […] The titrations were run at 288 K in order to improve the signal to noise ratio, and just above the precipitation limit as the ITC method is sensitive to the thermal noise caused by the stirring of large particles. […] These values strongly supported tight binding between the Aβ oligomer species and 7.
For DLS measurements, 500 µL Aβ(1–42) solution (c = 72 µM) was prepared in PBS, and placed in a low–volume sizing cell. Size distribution was measured at 25°C on a Malvern Zetasizer Nano ZS Instrument (Malvern Instruments Ltd. Worcestershire, UK) equipped with a He-Ne laser (633 nm) by means of Non-Invasive Back Scatter (NIBS®) technology, which involves detection of the scattered light at an angle of 173°. A titration routine was formulated consisting of 12 independent measurements with a 2-min delay after each. The calculated amount of 7 solution was added to the Aβ after every second measurement. During the titration, the molar quantity of 7 varied between 0–35 µM. For a single measurement, the correlation function and distribution of the apparent hydrodynamic diameter (dh) over the scattered intensity of the particles were determined on the basis of 14 scans. […]

[2] = molecular target: T2, HMW fraction of Aβ oligomers (Homo sapiens, UniProt P05067); assay: Concentration-dependent dot blot with SEC-separated HMW Aβ oligomer fraction; assay type: binding; conditions: 10 µg ligand spotted, BAM10 1∶500
T2 construct: a depsipeptide derivative of Aβ(1–42) was utilized; made in house; host or cells: chemical peptide synthesis (no expression host)
T2 sequence (P05067 672-713 limits assumed): as above
Protocol: ITC measurement for 7 indicated fractional stoichiometry for the low nM binding, which pointed to that the high affinity interaction involves only a fraction of the oligomeric Aβ sample. To localize the strongly binding fraction in the mixture, size exclusion chromatographic (SEC) separation was carried out and the resulting Aβ oligomer fractions were tested with 7 in concentration-dependent dot blot experiments. Two dominant peaks were found in the SEC chromatogram corresponding to the high molecular weight (HMW) and low molecular weight (LMW) components (Figure 7). […] In control experiments, specific and/or preferential binding of Aβ by the membrane itself were ruled out. These findings were in line with the ITC and ELISA results. It could be concluded that 7 preferentially bound to the LMW fraction at low nM concentration and also interacted with the HMW fraction at sub-µM level.
Figure 7 Selective binding to the LMW Aβ oligomers in the nM range. Size exclusion chromatographic separation of the HMW and LMW fractions of the Aβ oligomeric sample (top panel). Concentration-dependent dot blot experiments performed with the HMW (A) and the LMW fractions (B). The ligand loadings were 10 µg aliquots of 7, and the sequence specific antibody BAM10 (1∶500) was utilized. Lanes within the panels are parallel experiments. […]

[3] = molecular target: T3, monomeric Aβ (Homo sapiens, UniProt P05067); assay: ITC titration with monomeric Aβ sample; assay type: binding
T3 construct: In this work, a depsipeptide derivative of Aβ(1–42) was utilized; made in house; host or cells: chemical peptide synthesis (no expression host)
T3 sequence (P05067 672-713 limits assumed): as above

[4] = molecular target: T1, Aβ oligomers; assay: Isothermal titration calorimetry (ITC) with Aβ oligomers; assay type: binding; conditions: 72 μM Aβ oligomer, 288 K
Protocol: as §1
Isothermal titrations were performed with a Microcal VP-ITC microcalorimeter. The binding experiments were performed in PBS pH 7.4. The buffer solution was degassed. The concentrations of the ligands and Aβ were corrected for the material content. In individual titrations, 10 μL of ligand was injected from the computer-controlled 300-μL microsyringe at intervals of 300 s into the Aβ oligomer solution dissolved in the same buffer as the ligand. The microsyringe stirring was set to 295 rpm. All measurements were made at 288 K. The Aβ concentrations in the cell were either 72 μM or 36 μM, and the concentrations of 7 were 175 μM and 222 μM respectively. The total ligand concentration was set in the syringe so that the titration stopped when the precipitation became excessive. Control experiments were performed by injecting the ligand into a cell containing buffer with no target, and the heats of dilution were subtracted from those measured in the presence of Aβ. Titrations were also performed with buffer in the syringe and Aβ oligomer sample in the cell to check for the heat response of Aβ dilution itself. The dilution heat of the Aβ oligomer samples was constant and negligible. Since the target is inherently inhomogeneous, and an a priori model of the binding events is not available,. the experimental data were fitted to the two independent site binding model by using a nonlinear least-squares procedure, with ΔHb, ΔHb', Ka, Ka' (association constants), N and N' (number of binding sites for monomer), as adjustable parameters. The exothermic peaks appearing after the fully precipitated phase was reached, were omitted from the regression.

For `N=C(N)NCCC[C@@H](CC(=O)N[C@H]1CCCC[C@@H]1C(=O)N[C@H]1CCCC[C@@H]1C(=O)N[C@@H](CC(=O)O)CC(=O)N[C@H]1CCCC[C@@H]1C(=O)NCC(=O)NCC(=O)N[C@@H](CSC1CC(=O)N(CCC(=O)NCCNC(=O)CCN(CCC(=O)NCCNC(=O)CCN2C(=O)CC(SC[C@H](NC(=O)CNC(=O)CNC(=O)[C@H]3CCCC[C@@H]3NC(=O)C[C@H](CC(=O)O)NC(=O)[C@H]3CCCC[C@@H]3NC(=O)[C@H]3CCCC[C@@H]3NC(=O)C[C@H](CCCNC(=N)N)NC(=O)[C@H]3CCCC[C@@H]3N)C(N)=O)C2=O)CCN(CCC(=O)NCCNC(=O)CCN2C(=O)CC(SC[C@H](NC(=O)CNC(=O)CNC(=O)[C@H]3CCCC[C@@H]3NC(=O)C[C@H](CC(=O)O)NC(=O)[C@H]3CCCC[C@@H]3NC(=O)[C@H]3CCCC[C@@H]3NC(=O)C[C@H](CCCNC(=N)N)NC(=O)[C@H]3CCCC[C@@H]3N)C(N)=O)C2=O)CCC(=O)NCCNC(=O)CCN2C(=O)CC(SC[C@H](NC(=O)CNC(=O)CNC(=O)[C@H]3CCCC[C@@H]3NC(=O)C[C@H](CC(=O)O)NC(=O)[C@H]3CCCC[C@@H]3NC(=O)[C@H]3CCCC[C@@H]3NC(=O)C[C@H](CCCNC(=N)N)NC(=O)[C@H]3CCCC[C@@H]3N)C(N)=O)C2=O)C1=O)C(N)=O)NC(=O)[C@H]1CCCC[C@@H]1N` (stereo partly shown) [Compound 7], the “Concentration-dependent precipitation of Aβ oligomers during titration (ITC/DLS)” value [1] was “the precipitation started just before the equivalence point of the second stage”, the “Dot blot binding of HMW Aβ oligomer fraction” value [2] was “stained with just below micromolar affinity” and the “Binding in ITC titration with monomeric Aβ sample” value [3] was “did not exhibit submicromolar binding”. The “N (ITC stoichiometry, number of binding sites for monomer; first or single stage)” value [4] was 0.041±0.00089 and 0.041, the “N' (ITC stoichiometry, lower affinity interaction)” value [4] was 0.18±0.002 and 0.18 and the “ΔHb (ITC; first binding step for 7, single stage for 8)” value [4] was 7.24 ± 0.05 kcal/mol. The “ΔHb' (ITC, lower affinity interaction)” value [4] was 2.58 ± 0.02 kcal/mol.
